Test systems include RXF 393 renal; MDA-MB-231 breast; COLO 205 colon; SK-MEL-5 melanoma; LOX IMVI melanoma; IGROV1 ovarian; MDA-N; SK-MEL-28 melanoma; SF-539 CNS; SNB-75 CNS.
Common to all, as to experiment: NCI tumour cell line growth inhibition, 48 h

Structures are written as SMILES.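 Values below derive from 48-hour exposures of cells grown in 96-well plates, with endpoints linearly interpolated between the two concentrations bracketing the appropriate inhibition level. TGI is the concentration that stops growth completely.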 A value given as a limit tells only on which side of the number the result lay.

From PubChem BioAssay (NCI) come the findings set out here.

For the compound `CN(CCNC(=O)c1c[nH]c2c1Cc1ccccc1-2)CCNC(=O)c1c[nH]c2c1Cc1ccccc1-2`, the TGI in the assay with RXF 393 renal is greater than 100 µM; with MDA-MB-231 breast it was 80.6 µM; with COLO 205 colon it was greater than 100 µM; with SK-MEL-5 melanoma it was 71.4 µM; in the assay with LOX IMVI melanoma it was greater than 100 µM; in the assay with IGROV1 ovarian, greater than 100 µM. For the same compound, the TGI with MDA-N is 33.9 µM; in the assay with SK-MEL-28 melanoma, greater than 100 µM; in the assay on SF-539 CNS it was 49.2 µM.

With `CCC(C)C1=C(O)[N+]2([O-])Oc3ccc(-c4c(O)c(O)c(-c5ccc(OC(C)=O)cc5)c(OC(C)=O)c4OC(C)=O)cc3OC2(C(C)CC)C(=O)N1O` (stereo unspecified), the TGI in the assay with RXF 393 renal, in the assay with MDA-MB-231 breast, in the assay on COLO 205 colon, in the assay with SK-MEL-5 melanoma, in the assay with LOX IMVI melanoma and with IGROV1 ovarian was greater than 50 µM each time. In addition, the TGI with MDA-N, with SK-MEL-28 melanoma and in the assay with SF-539 CNS was greater than 50 µM throughout.

Take `Cc1ccc(C2(c3ccc(F)cc3)OC(=O)c3ccccc32)c(O)c1` (stereo unspecified): the TGI in the assay with MDA-MB-231 breast came to 46.1 µM; in the assay with COLO 205 colon, 41.6 µM; in the assay with SK-MEL-5 melanoma, 33.8 µM; with LOX IMVI melanoma, 26.9 µM; with IGROV1 ovarian it was 34 µM; with MDA-N, 24.3 µM. In addition, the values for the TGI with SNB-75 CNS and in the assay with SF-539 CNS were 31.6 µM and 37.5 µM, respectively.

In the case of `O=C1CN(c2cccc(Cl)c2)C(=O)CN1NCNN1CC(=O)N(c2cccc(Cl)c2)CC1=O`, the TGI in the assay on RXF 393 renal, in the assay with COLO 205 colon, in the assay on SK-MEL-5 melanoma, in the assay on IGROV1 ovarian, in the assay on MDA-N and in the assay with SNB-75 CNS was greater than 100 µM each time. The TGI with SK-MEL-28 melanoma and in the assay with SF-539 CNS was greater than 100 µM each time.

For `Clc1ccc(C[P+](c2ccccc2)(c2ccccc2)c2ccccc2)cc1Cl`, the TGI came to 2.95 µM in the assay on COLO 205 colon; 2.78 µM with SK-MEL-5 melanoma; 11.7 µM with LOX IMVI melanoma; 14.6 µM with IGROV1 ovarian; 5.1 µM in the assay on SNB-75 CNS; 11.4 µM in the assay with SK-MEL-28 melanoma. In the assay with SF-539 CNS, this compound showed a TGI of 14.5 µM.

For `C/C(N=NS(=O)(=O)c1ccc([N+](=O)[O-])cc1)=C1\C=CC=CN1O`, the TGI in the assay on SK-MEL-5 melanoma, in the assay on IGROV1 ovarian, with SNB-75 CNS, in the assay with SK-MEL-28 melanoma and in the assay on SF-539 CNS was greater than 100 µM in each case.

Consider `CC1OC2OC3C(OCC(O)C3O)OC(=O)[C@]34CCC(C)(C)CC3C3=CCC5[C@@]6(C)C[C@H](O)[C@H](OC7OC(CO)C(O)C(O)C7OC7OCC(OC(=O)CC(C)(O)CC(=O)OC1C(O)C2O)C(O)C7O)[C@@](C)(CO)C6CC[C@@]5(C)[C@]3(C)CC4` (stereo partly specified), for which the TGI came out at 20.6 µM in the assay with MDA-MB-231 breast; 4.39 µM with COLO 205 colon; 16.3 µM in the assay with SK-MEL-5 melanoma; 21.7 µM with LOX IMVI melanoma; 16.9 µM with IGROV1 ovarian; 13.8 µM in the assay with MDA-N. Also, the TGI amounted to 18.4 µM with SNB-75 CNS, 4.97 µM in the assay with SK-MEL-28 melanoma and 26 µM in the assay on SF-539 CNS.

Take `COc1cc2c(/C=C3/C(=O)Nc4ccc(Cl)cc43)c(Cl)[nH]c2cc1C`: the TGI in the assay on RXF 393 renal came out at 20.5 µM; in the assay with MDA-MB-231 breast it was 4.62 µM; in the assay with COLO 205 colon, 2.44 µM; in the assay with SK-MEL-5 melanoma, 10.4 µM; in the assay with LOX IMVI melanoma, 6.25 µM; in the assay with IGROV1 ovarian it was 5.43 µM. For the same compound, the TGI is 5.71 µM in the assay on SNB-75 CNS, 14.5 µM in the assay with SK-MEL-28 melanoma and 0.638 µM with SF-539 CNS.

As to `CCn1c2ccccc2c2c(-c3ccccc3)cc3c(c21)C(=O)N(c1ccccc1)C3=O`, the TGI with COLO 205 colon, in the assay on SK-MEL-5 melanoma, with LOX IMVI melanoma, in the assay on IGROV1 ovarian, in the assay on SNB-75 CNS and in the assay on SK-MEL-28 melanoma was greater than 100 µM throughout. In the assay with SF-539 CNS, this compound yielded a TGI greater than 100 µM.

For the compound `CC(C)C1=CC(=O)[C@@](C)(C2[C@H](O)C[C@@]3(C)[C@@H]4CC=C5[C@@H](CC[C@@H](OC6OCC(O)C(O)C6OC6OC(C)C(O)C(O)C6O)C5(C)C)[C@]4(C)C(=O)C[C@]23C)O1` (stereo partly specified), the TGI with RXF 393 renal, with MDA-MB-231 breast, with COLO 205 colon, in the assay on SK-MEL-5 melanoma, with IGROV1 ovarian and with MDA-N was greater than 100 µM in each case. Moreover, the TGI with SNB-75 CNS and with SK-MEL-28 melanoma was greater than 100 µM in each case.

For the compound `O=C(/C(=C\I)c1ccccc1)c1ccccc1`, the TGI in the assay on RXF 393 renal is 11.7 µM; in the assay with MDA-MB-231 breast it was 17.4 µM; with COLO 205 colon, 11.9 µM; with SK-MEL-5 melanoma, 31.3 µM; in the assay on LOX IMVI melanoma, 29.9 µM; in the assay on IGROV1 ovarian it was 26.3 µM. The TGI was greater than 39.5 µM with SNB-75 CNS, 5.88 µM with SK-MEL-28 melanoma and 35.1 µM with SF-539 CNS.

As for `O=C1CSC(c2cccc(Cl)c2)N1c1ccc(-c2ccc(-n3c(-c4ccccc4)nc4ccccc4c3=O)cc2)cc1` (stereo unspecified), the TGI in the assay with MDA-MB-231 breast is greater than 100 µM; in the assay with COLO 205 colon it was greater than 100 µM; with SK-MEL-5 melanoma, 84.4 µM; in the assay on LOX IMVI melanoma it was greater than 100 µM; in the assay on IGROV1 ovarian it was greater than 100 µM; in the assay on MDA-N, greater than 100 µM. Also, the TGI with SK-MEL-28 melanoma and with SF-539 CNS was greater than 100 µM each time.

As for `Br[C@@H]1[C@H]2c3nc4ccccc4nc3[C@@H]1C[C@H]2Br`, the TGI is 94.6 µM with RXF 393 renal; greater than 100 µM in the assay on MDA-MB-231 breast; greater than 100 µM in the assay on COLO 205 colon; 69.5 µM in the assay with SK-MEL-5 melanoma; greater than 100 µM in the assay on LOX IMVI melanoma; greater than 100 µM in the assay on IGROV1 ovarian. Also, the TGI in the assay with MDA-N and with SK-MEL-28 melanoma was greater than 100 µM in each case.

For `COc1cc2c(/C=C3/C(=O)N(C)c4ccc(O)cc43)c(Cl)[nH]c2cc1C`, the TGI in the assay on RXF 393 renal came out at 23.3 µM; in the assay with MDA-MB-231 breast, 15 µM; in the assay on COLO 205 colon it was 2.37 µM; in the assay on SK-MEL-5 melanoma, 6.35 µM; in the assay with LOX IMVI melanoma, 17.3 µM; with IGROV1 ovarian, 19.9 µM. Also, the figures for the TGI in the assay with SNB-75 CNS, with SK-MEL-28 melanoma and with SF-539 CNS were 20.8 µM, 15.4 µM and 0.722 µM, respectively.

As for `C[C@]12CC(c3ccccc3O1)C(C(=O)Nc1nc(C34CC5CC(CC(C5)C3)C4)cs1)C(=O)N2` (stereo partly specified), the TGI with RXF 393 renal, in the assay on MDA-MB-231 breast, with COLO 205 colon, in the assay with SK-MEL-5 melanoma, in the assay on LOX IMVI melanoma and in the assay on IGROV1 ovarian was greater than 100 µM throughout. For the same compound, the TGI with SNB-75 CNS and in the assay on SK-MEL-28 melanoma was greater than 100 µM in each case.
